Several values for one entry are separate records, joined by “and”; a condition that tells them apart may be missing. Equal entries are not always repeated. Toxic doses and inconclusive results are not listed.
System: CD2F1 mice, L1210 leukemia ip, survival T/C
Experiment: NCI In Vivo Anticancer Drug Screen. Data for tumor model L1210 Leukemia (intraperitoneal) in CD2F1 (CDF1) mice
Details: higher = longer survival
How it was run: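 Each value reflects a quotient of treated over vehicle control outcomes in mice with a transplanted tumor.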

[1] = endpoint: mean survival time, dose: 100.0 mg/kg/injection, schedule: Q01DX009 (ip), vehicle: saline with Tween-80
[2] = endpoint: mean survival time, dose: 200.0 mg/kg/injection, schedule: Q01DX009 (ip), vehicle: saline with Tween-80
[3] = endpoint: mean survival time, dose: 100.0 mg/kg/injection, schedule: Q04DX002 (ip), vehicle: saline with Tween-80
[4] = endpoint: mean survival time, dose: 200.0 mg/kg/injection, schedule: Q04DX002 (ip), vehicle: saline with Tween-80
[5] = endpoint: mean survival time, dose: 400.0 mg/kg/injection, schedule: Q04DX002 (ip), vehicle: saline with Tween-80
[6] = endpoint: mean survival time, dose: 100.0 mg/kg/injection, schedule: Q04DX003 (ip), vehicle: saline with Tween-80
[7] = endpoint: mean survival time, dose: 100.0 mg/kg/injection, schedule: Q04DX003 (ip), vehicle: saline
[8] = endpoint: mean survival time, dose: 200.0 mg/kg/injection, schedule: Q04DX003 (ip), vehicle: saline

COC1=CC(=O)C=C(OC(C)=O)C12Oc1c(Cl)c(C)c(Cl)c(O)c1C2=O (stereo not given)
T/C (endpoint: mean survival time, dose: 6.25 mg/kg/injection, schedule: Q04DX002 (ip), vehicle: saline with Tween-80): 105 % of control | T/C (endpoint: mean survival time, dose: 12.5 mg/kg/injection, schedule: Q04DX002 (ip), vehicle: saline with Tween-80): 98 % of control | T/C (endpoint: mean survival time, dose: 25.0 mg/kg/injection, schedule: Q04DX002 (ip), vehicle: saline with Tween-80): 102 % of control

CC(=O)Nc1nc(Cl)nc2c1ncn2Cc1ccccc1
T/C (endpoint: mean survival time, dose: 75.0 mg/kg/injection, schedule: Q01DX001 (ip), vehicle: other): 95 % of control | T/C (endpoint: mean survival time, dose: 150.0 mg/kg/injection, schedule: Q01DX001 (ip), vehicle: other): 96 % of control

CN(C)c1ccc(N=Nc2cccc(C(=O)[O-])c2)cc1.CN(C)c1ccc(N=Nc2cccc(C(=O)[O-])c2)cc1.NC1CCCCC1N.[Pt+4]
T/C (endpoint: median survival time, dose: 3.12 mg/kg/injection, schedule: Q04DX003 (ip), vehicle: saline with Tween-80): 116 % of control and 98 % of control | T/C (endpoint: median survival time, dose: 6.25 mg/kg/injection, schedule: Q04DX003 (ip), vehicle: saline with Tween-80): 115 % of control and 109 % of control | T/C (endpoint: median survival time, dose: 12.5 mg/kg/injection, schedule: Q04DX003 (ip), vehicle: saline with Tween-80): 101 % of control | T/C (endpoint: median survival time, dose: 100.0 mg/kg/injection, schedule: Q04DX003 (ip), vehicle: saline with Tween-80): 375 % of control | T/C (endpoint: median survival time, dose: 200.0 mg/kg/injection, schedule: Q04DX003 (ip), vehicle: saline with Tween-80): 104 % of control

C[N+](C)(C)CCS(=O)(=O)c1ccc(Cl)cc1
T/C (endpoint: mean survival time, dose: 25.0 mg/kg/injection, schedule: Q04DX002 (ip), vehicle: saline): 90 % of control | T/C (endpoint: mean survival time, dose: 50.0 mg/kg/injection, schedule: Q04DX002 (ip), vehicle: saline): 94 % of control | T/C (endpoint: mean survival time, dose: 100.0 mg/kg/injection, schedule: Q04DX002 (ip), vehicle: saline): 86 % of control

COc1ccc(OC)c(NC(=O)NNC(=O)c2ccc(Cl)cc2Cl)c1
T/C [1]: 91 % of control | T/C [2]: 90 % of control | T/C (endpoint: mean survival time, dose: 400.0 mg/kg/injection, schedule: Q01DX009 (ip), vehicle: saline with Tween-80): 91 % of control

O=C(CCCN1CCC(O)(c2ccc(Cl)cc2)CC1)c1ccc(N2CCC(O)CC2)cc1
T/C [3]: 104 % of control | T/C [4]: 93 % of control | T/C [5]: 93 % of control

CCC1=C[C@H]2CN(CCc3c([nH]c4ccccc34)[C@@](C(=O)OC)(c3cc4c(cc3OC)N(C)[C@H]3[C@@](O)(C(=O)OC)[C@H](OC(C)=O)[C@]5(CC)C=CCN6CC[C@]43[C@@H]65)C2)C1
T/C (endpoint: mean survival time, dose: 0.25 mg/kg/injection, schedule: Q01DX009 (ip), vehicle: water): 102 % of control | T/C (endpoint: mean survival time, dose: 2.0 mg/kg/injection, schedule: Q01DX009 (ip), vehicle: water): 161 % of control | T/C (endpoint: mean survival time, dose: 4.0 mg/kg/injection, schedule: Q01DX009 (ip), vehicle: water): 91 % of control | T/C (endpoint: median survival time, dose: 0.5 mg/kg/injection, schedule: Q01DX009 (ip), vehicle: water): 115 % of control

Cc1ccc(N)c(N)c1
T/C (endpoint: median survival time, dose: 25.0 mg/kg/injection, schedule: Q01DX009 (ip), vehicle: saline with Tween-80): 98 % of control | T/C (endpoint: median survival time, dose: 50.0 mg/kg/injection, schedule: Q01DX009 (ip), vehicle: saline with Tween-80): 98 % of control | T/C (endpoint: median survival time, dose: 100.0 mg/kg/injection, schedule: Q01DX009 (ip), vehicle: saline with Tween-80): 96 % of control

CCCCCCCCCCCCCC[N+](C)(C)Cc1cc(=O)c(O)co1
T/C (endpoint: mean survival time, dose: 25.0 mg/kg/injection, schedule: Q04DX003 (ip), vehicle: Klucel (hydroxypropylcellulose) (HPC)): 97 % of control | T/C (endpoint: mean survival time, dose: 50.0 mg/kg/injection, schedule: Q04DX003 (ip), vehicle: Klucel (hydroxypropylcellulose) (HPC)): 109 % of control | T/C (endpoint: mean survival time, dose: 100.0 mg/kg/injection, schedule: Q04DX003 (ip), vehicle: Klucel (hydroxypropylcellulose) (HPC)): 109 % of control | T/C [6]: 87 % of control

FC(F)(F)c1ccc2c(c1)Nc1ccccc1S2
T/C (endpoint: mean survival time, dose: 12.5 mg/kg/injection, schedule: Q04DX003 (ip), vehicle: saline): 96 % of control and 98 % of control | T/C (endpoint: mean survival time, dose: 25.0 mg/kg/injection, schedule: Q04DX003 (ip), vehicle: saline): 96 % of control and 101 % of control | T/C (endpoint: mean survival time, dose: 50.0 mg/kg/injection, schedule: Q04DX003 (ip), vehicle: saline): 101 % of control and 104 % of control | T/C [7]: 101 % of control and 104 % of control | T/C [8]: 96 % of control and 98 % of control

COC1=CC(=O)c2ccccc2C1=O
T/C [6]: 91 % of control | T/C (endpoint: mean survival time, dose: 200.0 mg/kg/injection, schedule: Q04DX003 (ip), vehicle: saline with Tween-80): 87 % of control

c1ccc2c[n+](C[n+]3ccc4ccccc4c3)ccc2c1
T/C (endpoint: mean survival time, dose: 50.0 mg/kg/injection, schedule: Q01DX009 (ip), vehicle: saline): 96 % of control | T/C (endpoint: mean survival time, dose: 100.0 mg/kg/injection, schedule: Q01DX009 (ip), vehicle: saline): 102 % of control | T/C (endpoint: mean survival time, dose: 200.0 mg/kg/injection, schedule: Q01DX009 (ip), vehicle: saline): 102 % of control

Cc1ccccc1NC(=O)Oc1cccc(OC(=O)c2ccccc2)c1
T/C [3]: 103 % of control | T/C [4]: 103 % of control | T/C [5]: 91 % of control

S=C(S)NN1CCCC1
T/C (endpoint: mean survival time, dose: 25.0 mg/kg/injection, schedule: Q01DX009 (ip), vehicle: saline with Tween-80): 101 % of control | T/C (endpoint: mean survival time, dose: 50.0 mg/kg/injection, schedule: Q01DX009 (ip), vehicle: saline with Tween-80): 100 % of control | T/C [6]: 92 % of control

NCC(Cl)c1ccccc1 (stereo not given)
T/C [1]: 97 % of control | T/C [2]: 95 % of control

Nc1nc(F)nc2c1ncn2C1OC(CO)C(O)C1O (stereo not given)
T/C (endpoint: mean survival time, dose: 100.0 mg/kg/injection, schedule: Q01DX001 (ip), vehicle: other): 105 % of control | T/C (endpoint: mean survival time, dose: 111.0 mg/kg/injection, schedule: Q01DX009 (ip), vehicle: saline with Tween-80): 187 % of control | T/C (endpoint: mean survival time, dose: 133.0 mg/kg/injection, schedule: Q01DX005 (ip), vehicle: saline with Tween-80): 154 % of control | T/C (endpoint: mean survival time, dose: 133.0 mg/kg/injection, schedule: Q01DX009 (ip), vehicle: saline with Tween-80): 227 % of control and 276 % of control | T/C (endpoint: mean survival time, dose: 156.0 mg/kg/injection, schedule: Q01DX009 (ip), vehicle: saline with Tween-80): 393 % of control | T/C (endpoint: mean survival time, dose: 178.0 mg/kg/injection, schedule: Q01DX005 (ip), vehicle: saline with Tween-80): 179 % of control | T/C (endpoint: mean survival time, dose: 178.0 mg/kg/injection, schedule: Q01DX009 (ip), vehicle: saline with Tween-80): 473 % of control | T/C (endpoint: mean survival time, dose: 200.0 mg/kg/injection, schedule: Q01DX001 (ip), vehicle: other): 109 % of control | T/C [2]: 563 % of control | T/C (endpoint: mean survival time, dose: 222.0 mg/kg/injection, schedule: Q01DX009 (ip), vehicle: saline with Tween-80): 333 % of control | T/C (endpoint: mean survival time, dose: 400.0 mg/kg/injection, schedule: Q01DX001 (ip), vehicle: other): 105 % of control

CC1(C)C([N+](C)(C)C)CS1(=O)=O (stereo not given)
T/C (endpoint: mean survival time, dose: 100.0 mg/kg/injection, schedule: Q01DX001 (ip), vehicle: saline): 105 % of control | T/C [7]: 96 % of control | T/C (endpoint: mean survival time, dose: 200.0 mg/kg/injection, schedule: Q01DX001 (ip), vehicle: saline): 103 % of control | T/C [8]: 101 % of control | T/C (endpoint: mean survival time, dose: 400.0 mg/kg/injection, schedule: Q01DX001 (ip), vehicle: saline): 103 % of control | T/C (endpoint: mean survival time, dose: 400.0 mg/kg/injection, schedule: Q04DX003 (ip), vehicle: saline): 96 % of control
